Laboratory results: patent publication US20120121591A1 (priority 2009, published 2012)

Experiments:
Type in all cases: cell-based
[1] = system: IL-2 secretion from T cells in human whole blood; conditions: read-out: WB (IL-2) IC50 (nM, Avg)
[2] = system: IFN-g secretion from T cells in human whole blood; conditions: read-out: WB (IFNg) IC50 (nM, Avg)
[3] = target: hKv1.3 (Homo sapiens, UniProt P22001); assay: cell-based; conditions: Kv1.3 (IWQ) IC50 (nM, Avg)
Sequence of hKv1.3 (P22001 whole entry): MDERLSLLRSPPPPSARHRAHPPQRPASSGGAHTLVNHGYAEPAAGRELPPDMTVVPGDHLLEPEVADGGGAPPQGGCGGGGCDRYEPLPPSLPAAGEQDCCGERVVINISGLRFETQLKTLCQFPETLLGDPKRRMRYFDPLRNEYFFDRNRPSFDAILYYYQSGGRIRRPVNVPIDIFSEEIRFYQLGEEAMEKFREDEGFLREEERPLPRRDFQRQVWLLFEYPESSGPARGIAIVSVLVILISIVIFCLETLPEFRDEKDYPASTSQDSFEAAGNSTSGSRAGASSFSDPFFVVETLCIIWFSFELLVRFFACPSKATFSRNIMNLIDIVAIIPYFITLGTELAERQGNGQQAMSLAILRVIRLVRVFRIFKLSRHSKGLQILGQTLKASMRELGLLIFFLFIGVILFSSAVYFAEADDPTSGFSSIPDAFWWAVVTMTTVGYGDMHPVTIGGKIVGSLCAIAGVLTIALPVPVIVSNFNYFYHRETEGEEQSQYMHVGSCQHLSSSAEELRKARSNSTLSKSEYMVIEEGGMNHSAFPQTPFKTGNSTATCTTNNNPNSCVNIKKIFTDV

Work on CC[C@H](C)[C@@H]1NC(=O)[C@@H](NC(=O)[C@H](CO)NC(=O)[C@@H](N)CCCNC(=N)N)CSSC[C@@H](C(N)=O)NC(=O)[C@H]([C@@H](C)O)NC(=O)CNC(=O)[C@@H]2CSSC[C@@H]3NC(=O)[C@H](CCCCN)NC(=O)[C@H](Cc4ccccc4)NC(=O)[C@H](C)NC(=O)[C@H]([C@@H](C)O)NC(=O)[C@H](CSSC[C@H](NC(=O)[C@H](Cc4ccccc4)NC(=O)[C@H](Cc4ccccc4)NC(=O)[C@H](CC(C)C)NC(=O)[C@H](CCCNC(=N)N)NC(=O)[C@H](Cc4ccc(O)cc4)NC(=O)[C@H](CCCCN)NC(=O)[C@H](CCSC)NC(=O)[C@H](CO)NC(=O)[C@H](Cc4c[nH]cn4)NC(=O)[C@H](CCCCN)NC3=O)C(=O)N[C@@H](CCCCN)C(=O)N[C@@H](CCCCN)C(=O)N[C@@H]([C@@H](C)O)C(=O)N2)NC(=O)[C@H](CCCNC(=N)N)NC(=O)[C@H](CO)NC(=O)[C@H](CCCCN)NC(=O)[C@@H]2CCCN2C(=O)[C@H]([C@@H](C)CC)NC(=O)[C@H]([C@@H](C)O)NC(=O)[C@H](CC(=O)O)NC1=O [[Lys16, 29;Phe26]ShK-amide] yielded an IC50 [1] of 1.42 nM, an IC50 [2] of 1.36 nM and an IC50 [3] of 0.542 nM.
CC[C@@H]1NC(=O)[C@H](CO)NC(=O)[C@H](Cc2c[nH]cn2)NC(=O)[C@H](CCCCN)NC(=O)[C@@H]2CSSC[C@@H]3NC(=O)[C@H]([C@@H](C)O)NC(=O)[C@H](CCCCN)NC(=O)[C@H](CCCNC(=N)N)NC(=O)[C@H](CSSC[C@H](NC(=O)[C@H](CCCNC(=N)N)NC(=O)[C@H](CO)NC(=O)[C@H](CCCCN)NC(=O)[C@@H]4CCCN4C(=O)[C@H]([C@@H](C)CC)NC(=O)[C@H]([C@@H](C)O)NC(=O)[C@H](CC(=O)O)NC(=O)[C@H]([C@@H](C)CC)NC(=O)[C@@H](NC(=O)[C@H](CO)NC(=O)[C@@H](N)CCCNC(=N)N)CSSC[C@@H](C(N)=O)NC(=O)[C@H]([C@@H](C)O)NC(=O)CNC3=O)C(=O)N[C@@H]([C@@H](C)O)C(=O)N[C@@H](C)C(=O)N[C@@H](Cc3ccccc3)C(=O)N[C@@H](CCCCN)C(=O)N2)NC(=O)[C@H](Cc2ccccc2)NC(=O)[C@H](CO)NC(=O)[C@H](CC(C)C)NC(=O)[C@H](CCCNC(=N)N)NC(=O)[C@H](Cc2ccc(O)cc2)NC(=O)[C@H](CCCCN)NC1=O [[Lys16, Abu21]ShK-amide] was tested, and the IC50 [1] was 1.2 nM, the IC50 [2] was 1.53 nM and the IC50 [3] was 0.246 nM.
CC[C@H](C)[C@@H]1NC(=O)[C@@H](NC(=O)[C@H](CO)NC(=O)[C@@H](N)CCCNC(=N)N)CSSC[C@@H](C(N)=O)NC(=O)[C@H]([C@@H](C)O)NC(=O)CNC(=O)[C@@H]2CSSC[C@@H]3NC(=O)[C@H](CCCCN)NC(=O)[C@H](Cc4ccccc4)NC(=O)[C@H](C)NC(=O)[C@H]([C@@H](C)O)NC(=O)[C@H](CSSC[C@H](NC(=O)[C@H](Cc4ccccc4)NC(=O)[C@H](CO)NC(=O)[C@H](CC(C)C)NC(=O)[C@H](CCCNC(=N)N)NC(=O)[C@H](Cc4ccc(O)cc4)NC(=O)[C@H](CCCCN)NC(=O)[C@H](CC(=O)O)NC(=O)[C@H](CO)NC(=O)[C@H](Cc4c[nH]cn4)NC(=O)[C@H](CCCCN)NC3=O)C(=O)N[C@@H](CCCNC(=N)N)C(=O)N[C@@H](CCCCN)C(=O)N[C@@H]([C@@H](C)O)C(=O)N2)NC(=O)[C@H](CCCNC(=N)N)NC(=O)[C@H](CO)NC(=O)[C@H](CCCCN)NC(=O)[C@@H]2CCCN2C(=O)[C@H]([C@@H](C)CC)NC(=O)[C@H]([C@@H](C)O)NC(=O)[C@H](CC(=O)O)NC1=O [[Lys16, Asp21]ShK-amide] was tested, and the IC50 [1] was 2.31 nM, the IC50 [2] was 3.63 nM and the IC50 [3] was 0.35 nM.
With CC[C@H](C)[C@@H]1NC(=O)[C@@H](NC(=O)[C@H](CO)NC(=O)[C@@H](N)CCCNC(=N)N)CSSC[C@@H](C(N)=O)NC(=O)[C@H]([C@@H](C)O)NC(=O)CNC(=O)[C@@H]2CSSC[C@@H]3NC(=O)[C@H](CCCCN)NC(=O)[C@H](Cc4ccccc4)NC(=O)[C@H](C)NC(=O)[C@H]([C@@H](C)O)NC(=O)[C@H](CSSC[C@H](NC(=O)[C@H](Cc4ccccc4)NC(=O)[C@H](CO)NC(=O)[C@H](CC(C)C)NC(=O)[C@H](CCCNC(=N)N)NC(=O)[C@H](Cc4ccc(O)cc4)NC(=O)[C@H](CCCCN)NC(=O)[C@H](CC4CCCCC4)NC(=O)[C@H](CO)NC(=O)[C@H](Cc4c[nH]cn4)NC(=O)[C@H](CCCCN)NC3=O)C(=O)N[C@@H](CCCNC(=N)N)C(=O)N[C@@H](CCCCN)C(=O)N[C@@H]([C@@H](C)O)C(=O)N2)NC(=O)[C@H](CCCNC(=N)N)NC(=O)[C@H](CO)NC(=O)[C@H](CCCCN)NC(=O)[C@@H]2CCCN2C(=O)[C@H]([C@@H](C)CC)NC(=O)[C@H]([C@@H](C)O)NC(=O)[C@H](CC(=O)O)NC1=O [[Lys16, Cha21]ShK-amide] the IC50 [1] was 1.74 nM, the IC50 [2] was 1.32 nM and the IC50 [3] was 0.499 nM.
CC[C@H](C)[C@@H]1NC(=O)[C@@H](NC(=O)[C@H](CO)NC(=O)[C@@H](N)CCCNC(=N)N)CSSC[C@@H](C(N)=O)NC(=O)[C@H]([C@@H](C)O)NC(=O)CNC(=O)[C@@H]2CSSC[C@@H]3NC(=O)[C@H](CCCCN)NC(=O)[C@H](Cc4ccccc4)NC(=O)[C@H](C)NC(=O)[C@H]([C@@H](C)O)NC(=O)[C@H](CSSC[C@H](NC(=O)[C@H](Cc4ccccc4)NC(=O)[C@H](CO)NC(=O)[C@H](CC(C)C)NC(=O)[C@H](CCCNC(=N)N)NC(=O)[C@H](Cc4ccc(O)cc4)NC(=O)[C@H](CCCCN)NC(=O)[C@H](C4CCCCC4)NC(=O)[C@H](CO)NC(=O)[C@H](Cc4c[nH]cn4)NC(=O)[C@H](CCCCN)NC3=O)C(=O)N[C@@H](CCCNC(=N)N)C(=O)N[C@@H](CCCCN)C(=O)N[C@@H]([C@@H](C)O)C(=O)N2)NC(=O)[C@H](CCCNC(=N)N)NC(=O)[C@H](CO)NC(=O)[C@H](CCCCN)NC(=O)[C@@H]2CCCN2C(=O)[C@H]([C@@H](C)CC)NC(=O)[C@H]([C@@H](C)O)NC(=O)[C@H](CC(=O)O)NC1=O [[Lys16, Chg21]ShK-amide] was tested, and the IC50 [1] was 0.875 nM, the IC50 [2] was 0.727 nM and the IC50 [3] was 0.205 nM.
CC[C@H](C)[C@@H]1NC(=O)[C@@H](NC(=O)[C@H](CO)NC(=O)[C@@H](N)CCCNC(=N)N)CSSC[C@@H](C(N)=O)NC(=O)[C@H]([C@@H](C)O)NC(=O)CNC(=O)[C@@H]2CSSC[C@@H]3NC(=O)[C@H](CCCCN)NC(=O)[C@H](Cc4ccccc4)NC(=O)[C@H](C)NC(=O)[C@H]([C@@H](C)O)NC(=O)[C@H](CSSC[C@H](NC(=O)[C@H](Cc4ccccc4)NC(=O)[C@H](CO)NC(=O)[C@H](CC(C)C)NC(=O)[C@H](CCCNC(=N)N)NC(=O)[C@H](Cc4ccc(O)cc4)NC(=O)[C@H](CCCCN)NC(=O)[C@H](CCC(N)=O)NC(=O)[C@H](CO)NC(=O)[C@H](Cc4c[nH]cn4)NC(=O)[C@H](CCCCN)NC3=O)C(=O)N[C@@H](CCCNC(=N)N)C(=O)N[C@@H](CCCCN)C(=O)N[C@@H]([C@@H](C)O)C(=O)N2)NC(=O)[C@H](CCCNC(=N)N)NC(=O)[C@H](CO)NC(=O)[C@H](CCCCN)NC(=O)[C@@H]2CCCN2C(=O)[C@H]([C@@H](C)CC)NC(=O)[C@H]([C@@H](C)O)NC(=O)[C@H](CC(=O)O)NC1=O [[Lys16, Gln21]ShK-amide] was tested, and the IC50 [1] was 0.42 nM, the IC50 [2] was 0.812 nM and the IC50 [3] was 0.161 nM.
